From patent US20140213513A1 (Sanofi, priority 2012, published 2014) come the findings set out here.

Holding throughout (assay type): cell-based
What all share (settings): Table 7; cAMP formation
On the technique in general: Cyclic AMP is a second messenger, typically raised through Gs and lowered through Gi signalling.

Assay [1] deals with T1, human GLP-1 receptor (hGLP-1 R) (Homo sapiens, UniProt P43220).
T1 construct: expressed in transfected cells
Description: cAMP response of HEK-293 cells stably expressing human GLP-1 receptor (HTRF). The method, then: (§1) cAMP content of cells was determined using a kit from Cisbio Corp. (cat. no. 62AM4PEC) based on HTRF (Homogenous Time Resolved Fluorescence). For preparation, cells were split into T175 culture flasks and grown overnight to near confluency in medium (DMEM/10% FBS). Medium was then removed and cells washed with PBS lacking calcium and magnesium, followed by proteinase treatment with accutase (Sigma-Aldrich cat. no. A6964). Detached cells were washed and resuspended in assay buffer (1×HBSS; 20 mM HEPES, 0.1% BSA, 2 mM IBMX) and cellular density determined. They were then diluted to 400000 cells/ml and 25 μl-aliquots dispensed into the wells of 96-well plates. For measurement, 25 μl of test compound in assay buffer was added to the wells, followed by incubation for 30 minutes at room temperature.

Assay [2] deals with T2, human glucagon receptor (hGLUC R) (Homo sapiens, UniProt P47871).
T2 construct: expressed in transfected cells
Description: cAMP response of HEK-293 cells stably expressing human glucagon receptor (HTRF). As to the method:
as §1
Background: Time-resolved FRET reads energy transfer from a long-lived donor to a nearby acceptor.

In assay [3] the target is T3, human GIP receptor (hGIP R) (Homo sapiens, UniProt P48546).
T3 construct: expressed in transfected cells
T3 sequence (P48546 22-466): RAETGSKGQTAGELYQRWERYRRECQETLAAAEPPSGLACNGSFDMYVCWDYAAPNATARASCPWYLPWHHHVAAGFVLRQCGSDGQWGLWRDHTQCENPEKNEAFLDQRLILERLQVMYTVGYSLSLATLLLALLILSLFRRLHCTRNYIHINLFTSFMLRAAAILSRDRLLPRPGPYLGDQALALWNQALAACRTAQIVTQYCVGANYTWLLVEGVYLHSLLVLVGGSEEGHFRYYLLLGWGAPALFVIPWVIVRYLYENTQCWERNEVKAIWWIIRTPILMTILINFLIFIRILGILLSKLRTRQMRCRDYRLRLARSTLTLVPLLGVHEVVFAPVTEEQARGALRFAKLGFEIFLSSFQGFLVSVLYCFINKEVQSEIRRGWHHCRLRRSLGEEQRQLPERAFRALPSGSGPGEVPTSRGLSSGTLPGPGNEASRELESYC
The experiment in a line: cAMP response of HEK-293 cells stably expressing human GIP receptor (HTRF). The method, then:
as §1

The structures appear in SMILES notation. *1 amine or outer side, *2 acyl side, *3 side chain or, on linkers, in order; H or OH if unused. Where a SMILES comes first, the peptide text is derived from it. Side-chain parts run from the residue outwards. [ ]: non-standard residue; d: D form. The star is where a group is joined. γGlu = O=C(O)[C@H](CCC(=O)[*:2])N[*:1]; Stearoyl = CCCCCCCCCCCCCCCCCC(=O)*; Palmitoyl = CCCCCCCCCCCCCCCC(=O)*; Aib = CC(C)(N)C(=O)O

T2 sequence (P47871 26-477): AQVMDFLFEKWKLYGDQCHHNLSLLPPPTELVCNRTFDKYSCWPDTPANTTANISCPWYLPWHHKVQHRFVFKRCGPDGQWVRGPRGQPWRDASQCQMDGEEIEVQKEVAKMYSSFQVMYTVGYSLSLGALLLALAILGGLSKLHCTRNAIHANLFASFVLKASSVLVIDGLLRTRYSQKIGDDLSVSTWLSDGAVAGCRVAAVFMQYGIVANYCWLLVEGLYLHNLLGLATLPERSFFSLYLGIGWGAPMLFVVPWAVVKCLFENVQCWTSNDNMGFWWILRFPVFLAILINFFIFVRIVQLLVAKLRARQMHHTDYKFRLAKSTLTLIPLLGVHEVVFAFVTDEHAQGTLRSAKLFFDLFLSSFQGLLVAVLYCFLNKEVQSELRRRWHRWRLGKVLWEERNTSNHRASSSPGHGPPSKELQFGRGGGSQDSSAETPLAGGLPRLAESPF
T1 sequence (P43220 24-463): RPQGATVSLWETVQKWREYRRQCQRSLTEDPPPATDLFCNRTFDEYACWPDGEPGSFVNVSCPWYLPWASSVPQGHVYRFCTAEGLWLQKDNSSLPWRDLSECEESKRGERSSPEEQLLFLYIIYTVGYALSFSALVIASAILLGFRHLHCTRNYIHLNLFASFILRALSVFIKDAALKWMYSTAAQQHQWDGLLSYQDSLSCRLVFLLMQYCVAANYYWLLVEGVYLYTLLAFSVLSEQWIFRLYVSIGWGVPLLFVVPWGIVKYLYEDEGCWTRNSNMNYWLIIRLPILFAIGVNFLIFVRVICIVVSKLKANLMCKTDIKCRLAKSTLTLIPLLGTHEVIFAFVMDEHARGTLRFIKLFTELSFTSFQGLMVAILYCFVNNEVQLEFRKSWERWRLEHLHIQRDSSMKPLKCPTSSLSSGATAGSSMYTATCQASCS

`CCCCCCCCCCCCCCCC(=O)N[C@@H](CCC(=O)NCCCC[C@H](NC(=O)[C@H](CCC(N)=O)NC(=O)[C@@H](NC(=O)[C@H](CO)NC(=O)[C@H](CC(C)C)NC(=O)[C@H](CC(=O)O)NC(=O)[C@H](CO)NC(=O)[C@@H](NC(=O)[C@H](Cc1ccccc1)NC(=O)[C@@H](NC(=O)CNC(=O)[C@H](CCC(=O)O)NC(=O)C(C)(C)NC(=O)[C@@H](N)Cc1ccc(O)cc1)[C@@H](C)O)[C@@H](C)O)[C@@H](C)CC)C(=O)N[C@@H](CCC(=O)O)C(=O)N[C@@H](CCCCN)C(=O)N[C@@H](CCCNC(=N)N)C(=O)N[C@@H](C)C(=O)N[C@@H](C)C(=O)N[C@@H](Cc1c[nH]cn1)C(=O)N[C@@H](CCC(=O)O)C(=O)N[C@@H](Cc1ccccc1)C(=O)N[C@H](C(=O)N[C@@H](CCC(=O)O)C(=O)N[C@@H](Cc1c[nH]c2ccccc12)C(=O)N[C@@H](CC(C)C)C(=O)N[C@@H](CCCCN)C(=O)N[C@@H](CC(N)=O)C(=O)N[C@H](C(=O)NCC(=O)N1CCC[C@H]1C(=O)N[C@@H](CO)C(=O)N[C@@H](CO)C(=O)NCC(=O)N[C@@H](C)C(=O)N1CCC[C@H]1C(=O)N1CCC[C@H]1C(=O)N1CCC[C@H]1C(=O)N[C@@H](CO)C(N)=O)[C@@H](C)O)[C@@H](C)CC)C(=O)O` [SEQ ID NO: 59, Y-Aib-E-G-T-F-T-S-D-L-S-I-Q-K(yE-x53)-EKRAAHEFIEWLKNTGPSSGAPPPS-NH2] (H-Y[Aib]EGTFTSDLSIQK([γGlu-Palmitoyl])EKRAAHEFIEWLKNTGPSSGAPPPS-NH2): the EC50 in assay [1] stood at 0.0075 nM; in assay [2], 12.3 nM; in assay [3], 0.0175 nM.
On the same counts, the results for `CCCCCCCCCCCCCCCC(=O)N[C@@H](CCC(=O)NCCCC[C@H](NC(=O)[C@H](CCC(N)=O)NC(=O)[C@H](CCCCN)NC(=O)[C@H](CO)NC(=O)[C@H](CC(C)C)NC(=O)[C@H](CC(=O)O)NC(=O)[C@H](CO)NC(=O)[C@@H](NC(=O)[C@H](Cc1ccccc1)NC(=O)[C@@H](NC(=O)CNC(=O)[C@H](Cc1c[nH]cn1)NC(=O)C(C)(C)NC(=O)[C@@H](N)Cc1ccc(O)cc1)[C@@H](C)O)[C@@H](C)O)C(=O)N[C@@H](CCC(=O)O)C(=O)N[C@@H](CCCCN)C(=O)N[C@@H](CCCNC(=N)N)C(=O)N[C@@H](C)C(=O)N[C@@H](C)C(=O)NC(C)(C)C(=O)N[C@@H](CCC(=O)O)C(=O)N[C@@H](Cc1ccccc1)C(=O)N[C@H](C(=O)N[C@@H](CCC(=O)O)C(=O)N[C@@H](Cc1c[nH]c2ccccc12)C(=O)N[C@@H](CC(C)C)C(=O)N[C@@H](CCCCN)C(=O)N[C@@H](CC(N)=O)C(=O)N[C@H](C(=O)NCC(=O)N1CCC[C@H]1C(=O)N[C@@H](CO)C(=O)N[C@@H](CO)C(=O)NCC(=O)N[C@@H](C)C(=O)N1CCC[C@H]1C(=O)N1CCC[C@H]1C(=O)N1CCC[C@H]1C(=O)N[C@@H](CO)C(N)=O)[C@@H](C)O)[C@@H](C)CC)C(=O)O` [SEQ ID NO: 28, Y-Aib-H-G-T-F-T-S-D-L-S-K-Q-K(yE-x53)-E-K-R-A-A-Aib-E-F-I-E-W-L-K-N-T-G-P-S-S-G-A-P-P-P-S-NH2] (H-Y[Aib]HGTFTSDLSKQK([γGlu-Palmitoyl])EKRAA[Aib]EFIEWLKNTGPSSGAPPPS-NH2) are 0.0583 nM, 0.0048 nM and 0.0368 nM.
Take `CCCCCCCCCCCCCCCCCC(=O)N[C@@H](CCC(=O)NCCCC[C@H](NC(=O)[C@H](CCC(N)=O)NC(=O)[C@@H](NC(=O)[C@H](CO)NC(=O)[C@H](CC(C)C)NC(=O)[C@H](CC(=O)O)NC(=O)[C@H](CO)NC(=O)[C@@H](NC(=O)[C@H](Cc1ccccc1)NC(=O)[C@@H](NC(=O)CNC(=O)[C@H](Cc1c[nH]cn1)NC(=O)C(C)(C)NC(=O)[C@@H](N)Cc1ccc(O)cc1)[C@@H](C)O)[C@@H](C)O)[C@@H](C)CC)C(=O)N[C@@H](CCC(=O)O)C(=O)N[C@@H](CCCCN)C(=O)N[C@@H](CCCNC(=N)N)C(=O)N[C@@H](C)C(=O)N[C@@H](C)C(=O)N[C@@H](Cc1ccccc1)C(=O)N[C@@H](CCC(=O)O)C(=O)N[C@@H](Cc1ccccc1)C(=O)N[C@H](C(=O)N[C@@H](CCC(=O)O)C(=O)N[C@@H](Cc1c[nH]c2ccccc12)C(=O)N[C@@H](CC(C)C)C(=O)N[C@@H](CCCCN)C(=O)N[C@@H](CC(N)=O)C(=O)N[C@H](C(=O)NCC(=O)N1CCC[C@H]1C(=O)N[C@@H](CO)C(=O)N[C@@H](CO)C(=O)NCC(=O)N[C@@H](C)C(=O)N1CCC[C@H]1C(=O)N1CCC[C@H]1C(=O)N1CCC[C@H]1C(=O)N[C@@H](CO)C(N)=O)[C@@H](C)O)[C@@H](C)CC)C(=O)O` [SEQ ID NO: 32, Y-Aib-H-G-T-F-T-S-D-L-S-I-Q-K(yE-x70)-EKRAAFEFIEWLKNTGPSSGAPPPS-NH2] (H-Y[Aib]HGTFTSDLSIQK([γGlu-Stearoyl])EKRAAFEFIEWLKNTGPSSGAPPPS-NH2): the EC50 turned out to be 0.0417 nM in assay [1], 0.0192 nM in assay [2] and 0.0335 nM in assay [3].
On the same counts, the results for `CCCCCCCCCCCCCCCCCC(=O)N[C@@H](CCC(=O)NCCCC[C@H](NC(=O)[C@H](CCC(N)=O)NC(=O)[C@@H](NC(=O)[C@H](CO)NC(=O)[C@H](CC(C)C)NC(=O)[C@H](CC(=O)O)NC(=O)[C@H](CO)NC(=O)[C@@H](NC(=O)[C@H](Cc1ccccc1)NC(=O)[C@@H](NC(=O)CNC(=O)[C@H](CCC(N)=O)NC(=O)C(C)(C)NC(=O)[C@@H](N)Cc1ccc(O)cc1)[C@@H](C)O)[C@@H](C)O)[C@@H](C)CC)C(=O)N[C@@H](CC(=O)O)C(=O)N[C@@H](CCC(=O)O)C(=O)N[C@@H](CCC(N)=O)C(=O)N[C@@H](CCCNC(=N)N)C(=O)N[C@@H](C)C(=O)N[C@@H](CCCCN)C(=O)N[C@@H](CCC(=O)O)C(=O)N[C@@H](Cc1ccccc1)C(=O)N[C@H](C(=O)N[C@@H](CCC(=O)O)C(=O)N[C@@H](Cc1c[nH]c2ccccc12)C(=O)N[C@@H](CC(C)C)C(=O)N[C@@H](CCCCN)C(=O)N[C@@H](C)C(=O)NCC(=O)NCC(=O)N1CCC[C@H]1C(=O)N[C@@H](CO)C(=O)N[C@@H](CO)C(=O)NCC(=O)N[C@@H](C)C(=O)N1CCC[C@H]1C(=O)N1CCC[C@H]1C(=O)N1CCC[C@H]1C(=O)N[C@@H](CO)C(N)=O)[C@@H](C)CC)C(=O)O` [SEQ ID NO: 31, Y-Aib-Q-G-T-F-T-S-D-L-S-I-Q-K(yE-x70)-DEQRAKEFIEWLKAGGPSSGAPPPS-NH2] are 0.0148 nM, 0.0041 nM and 0.0131 nM.

For orientation: EC50 means the concentration at which the effect is half-maximal. Low readings indicate an effect from little substance, high ones a need for much substance.
